Several values for one entry are separate records, joined by “and”; a condition that tells them apart may be missing. Equal entries are not always repeated.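 96-well plates; 48 h exposure; 5 concentrations. Endpoints by linear interpolation between flanking doses. Not reached: highest tested concentration assigned. Abbreviation: GI50, concentration required for 50% inhibition of growth. At the TGI there is no net growth.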

Among the test systems are PC-3 prostate; MALME-3M melanoma; SW-620 colon; IGROV1 ovarian; MDA-MB-435; CAKI-1 renal; HCT-15 colon; MOLT-4 leukemia; HCC-2998 colon; NCI-H522 lung.
Holding throughout (test): NCI-60 cell line screen, 48 h

`O=[N+]([O-])c1ccc(N/N=C\c2cc(Cl)ccc2O)nc1`: the GI50 with PC-3 prostate was 0.747 µM; with MALME-3M melanoma it was 2.68 µM; in the assay with SW-620 colon, 0.873 µM; in the assay with IGROV1 ovarian it was 1.2 µM; in the assay on MDA-MB-435 it was 1.76 µM; with CAKI-1 renal, 0.278 µM. The GI50 with HCT-15 colon was 0.735 µM; in the assay with MOLT-4 leukemia, 0.51 µM. Besides, the TGI is 55.6 µM in the assay on PC-3 prostate; 20.5 µM with MALME-3M melanoma; more than 100 µM in the assay with SW-620 colon; 4.69 µM in the assay with IGROV1 ovarian; more than 100 µM in the assay on MDA-MB-435; 1.07 µM in the assay with CAKI-1 renal. Moreover, the TGI with HCT-15 colon and with MOLT-4 leukemia was more than 100 µM in each case.
On to `COc1cc(O)c(C(=O)/C=C/c2ccccc2)c(OC)c1`, for which the TGI in the assay with MALME-3M melanoma is 18.2 µM; in the assay on SW-620 colon, 23.8 µM; in the assay with IGROV1 ovarian it was 17.4 µM; in the assay with HCC-2998 colon it was 14.1 µM; in the assay with MDA-MB-435, 25.5 µM; in the assay on CAKI-1 renal, 18.2 µM. The TGI amounted to 12.1 µM in the assay with NCI-H522 lung, 16.7 µM with HCT-15 colon and 25 µM in the assay with MOLT-4 leukemia.
On to `COc1ccccc1C(=O)/C=C/c1cc2cccc(OC)c2[nH]c1=O`, for which the GI50 was 0.0503 µM in the assay with PC-3 prostate; 0.0511 µM with MALME-3M melanoma; 0.0158 µM in the assay with SW-620 colon; 0.0523 µM in the assay on IGROV1 ovarian; 0.141 µM in the assay with HCC-2998 colon; 0.0241 µM in the assay with CAKI-1 renal. The GI50 is 0.101 µM in the assay with NCI-H522 lung, 0.027 µM with HCT-15 colon and 0.0408 µM with MOLT-4 leukemia. Further, the TGI was found to be 2.27 µM in the assay on PC-3 prostate; 4.6 µM in the assay with MALME-3M melanoma; 1.56 µM in the assay with SW-620 colon; 2.36 µM in the assay with IGROV1 ovarian; 1.3 µM with HCC-2998 colon; 1.54 µM in the assay with CAKI-1 renal. Besides, the TGI with NCI-H522 lung amounted to 2.16 µM; in the assay with HCT-15 colon, 1.73 µM; in the assay on MOLT-4 leukemia, 5.2 µM.
`COC(=O)Nc1nc2ccc(C(=O)c3ccc[nH]3)cc2[nH]1`: the TGI in the assay with MALME-3M melanoma is more than 31.3 µM; in the assay with SW-620 colon, more than 100 µM; in the assay with IGROV1 ovarian, more than 100 µM; in the assay with HCC-2998 colon, more than 100 µM; in the assay on MDA-MB-435, 0.359 µM; in the assay on CAKI-1 renal, more than 100 µM. Further, the TGI in the assay on HCT-15 colon and with MOLT-4 leukemia was more than 100 µM throughout.
For `Cc1ccc(-c2c(C#N)c(N)nc(N3CCOCC3)c2C#N)o1`, the GI50 was 30.6 µM in the assay on PC-3 prostate; 43.4 µM with MALME-3M melanoma; more than 100 µM with SW-620 colon; 21.6 µM in the assay with IGROV1 ovarian; 36.4 µM in the assay on NCI-H522 lung; 61.9 µM in the assay on MOLT-4 leukemia. Moreover, the TGI in the assay with PC-3 prostate is more than 100 µM; in the assay with MALME-3M melanoma, more than 100 µM; in the assay on SW-620 colon it was more than 100 µM; in the assay with IGROV1 ovarian, 59.6 µM; with NCI-H522 lung it was more than 100 µM; with MOLT-4 leukemia, more than 100 µM.
In the case of `COc1cc2c3c(n(C)c(=O)c2cc1OC)-c1cc2c(cc1/C3=C\CCCCN)OCO2`, the GI50 is 20 µM in the assay on PC-3 prostate; 6.36 µM with SW-620 colon; 3.12 µM in the assay on IGROV1 ovarian; 5.56 µM in the assay on MDA-MB-435; 4.41 µM in the assay with CAKI-1 renal; 2.02 µM in the assay with NCI-H522 lung. In addition, the GI50 is 25.1 µM in the assay on HCT-15 colon and 5.78 µM with MOLT-4 leukemia. The TGI is 62.1 µM with PC-3 prostate; 24.8 µM in the assay with SW-620 colon; 8.53 µM in the assay with IGROV1 ovarian; 20.3 µM with MDA-MB-435; 17.1 µM in the assay on CAKI-1 renal; 9.24 µM in the assay with NCI-H522 lung. Further, the TGI in the assay on HCT-15 colon and in the assay on MOLT-4 leukemia was more than 100 µM each time.
Consider `Cc1ccc2c(c1)NC(c1ccc(C(=O)O)cc1)c1cccn1-2` (stereo unspecified), for which the TGI is more than 100 µM in the assay on PC-3 prostate; more than 100 µM in the assay with SW-620 colon; more than 100 µM in the assay with MDA-MB-435; 72.7 µM with CAKI-1 renal; more than 100 µM in the assay on HCT-15 colon; more than 100 µM in the assay with MOLT-4 leukemia.
With `COc1cc2cc(Oc3ccc(NC(=O)Nc4cccc(C(F)(F)F)c4)cc3)c(C)nc2cc1OCCN1CCCCC1`, the GI50 with PC-3 prostate is 1.41 µM; with MALME-3M melanoma, 1.63 µM; with SW-620 colon, 1.98 µM; with MDA-MB-435 it was 1.59 µM; with CAKI-1 renal it was 1.4 µM; in the assay on NCI-H522 lung, 1.67 µM. Also, the TGI with PC-3 prostate was determined as 2.77 µM; with MALME-3M melanoma, 3.07 µM; in the assay on SW-620 colon, 3.6 µM; with MDA-MB-435, 2.94 µM; in the assay with CAKI-1 renal, 2.82 µM; in the assay with NCI-H522 lung, 3.33 µM.
Consider `O=c1c(Cl)nnc2sc3ccccc3n12`, for which the GI50 is 47.8 µM in the assay on PC-3 prostate; 47.7 µM in the assay on SW-620 colon; 31.9 µM with IGROV1 ovarian; 42 µM with MDA-MB-435; 0.813 µM with CAKI-1 renal; more than 100 µM with NCI-H522 lung. Moreover, the figures for the GI50 in the assay with HCT-15 colon and with MOLT-4 leukemia were 16.5 µM and 19.6 µM, respectively. Further, the TGI with PC-3 prostate was more than 100 µM; in the assay on SW-620 colon, more than 100 µM; with IGROV1 ovarian, more than 100 µM; with MDA-MB-435 it was more than 100 µM; in the assay on CAKI-1 renal it was 6.9 µM; in the assay with NCI-H522 lung, more than 100 µM. For the same molecule, the TGI was 54.3 µM with HCT-15 colon and more than 100 µM with MOLT-4 leukemia.
For `CCOC(=O)CCC(NC(=O)c1ccc(N=Cc2nc3cc(C(F)(F)F)ccc3nc2-c2ccccc2)cc1)C(=O)OCC` (stereo unspecified), the TGI was more than 50 µM in the assay with PC-3 prostate; 22.7 µM and > 100 µM in the assay with MALME-3M melanoma; more than 100 µM with SW-620 colon; 50 µM and > 100 µM with IGROV1 ovarian; more than 100 µM in the assay with HCC-2998 colon; 50 µM and > 100 µM in the assay with CAKI-1 renal. The TGI was 50 µM and > 100 µM in the assay with NCI-H522 lung; more than 100 µM with HCT-15 colon; more than 100 µM in the assay with MOLT-4 leukemia. Further, the GI50 is more than 100 µM in the assay on MALME-3M melanoma; more than 100 µM in the assay with SW-620 colon; more than 100 µM in the assay on IGROV1 ovarian; more than 100 µM with HCC-2998 colon; more than 100 µM in the assay on CAKI-1 renal; 21.5 µM with NCI-H522 lung. For the same molecule, the GI50 in the assay with HCT-15 colon and with MOLT-4 leukemia was more than 100 µM in each case.
Turning to `O=C1CC(=O)N(C2CCCCC2)C(=O)N1c1ccccc1S(=O)(=O)Oc1ccccc1`, the TGI in the assay with PC-3 prostate is more than 100 µM; in the assay with SW-620 colon it was more than 100 µM; in the assay on IGROV1 ovarian it was 30.2 µM; in the assay with HCC-2998 colon it was more than 100 µM; in the assay on MDA-MB-435, more than 100 µM; in the assay with CAKI-1 renal it was more than 100 µM. Moreover, the TGI in the assay on HCT-15 colon was more than 100 µM; in the assay with MOLT-4 leukemia it was 37.8 µM.
As for `CC(=O)[CH-]C(=O)c1ccccc1.CC(=O)[CH-]C(=O)c1ccccc1.CCN(CC)CC[O-].CCN(CC)CC[O-].Cl.[Ti+4]`, the GI50 with MALME-3M melanoma was 22.8 µM; in the assay on SW-620 colon, 45.9 µM; in the assay with IGROV1 ovarian it was 45.8 µM; in the assay on HCC-2998 colon, 23.1 µM; with CAKI-1 renal, 40.1 µM; in the assay on NCI-H522 lung, 17.1 µM. Further, the figures for the GI50 in the assay on HCT-15 colon and in the assay on MOLT-4 leukemia were 36.4 µM and 16.8 µM, respectively. The TGI is 60.8 µM with MALME-3M melanoma; more than 100 µM in the assay with SW-620 colon; more than 100 µM in the assay on IGROV1 ovarian; 76.6 µM in the assay on HCC-2998 colon; more than 100 µM in the assay on CAKI-1 renal; 43 µM in the assay on NCI-H522 lung. Besides, the TGI was more than 100 µM with HCT-15 colon and 59.9 µM in the assay on MOLT-4 leukemia.
With `COc1c(OC(C)=O)ccc(/C=C2\N=C(C)OC2=O)c1[N+](=O)[O-]`, the TGI in the assay on MALME-3M melanoma, in the assay on SW-620 colon, in the assay on IGROV1 ovarian, in the assay with HCC-2998 colon, with CAKI-1 renal and with NCI-H522 lung was more than 100 µM each time. Also, the TGI in the assay on HCT-15 colon and with MOLT-4 leukemia was more than 100 µM in each case.
`C/C(=N\N(C)C)c1sc(-n2nc(-c3ccccc3)cc2-c2ccccc2)nc1C`: the TGI in the assay on MALME-3M melanoma, with SW-620 colon, in the assay with IGROV1 ovarian, with HCC-2998 colon, in the assay with CAKI-1 renal and in the assay with NCI-H522 lung was more than 100 µM throughout. The TGI with HCT-15 colon and with MOLT-4 leukemia was more than 100 µM each time.
Take `NNC(=O)/C(=C/c1cccc([N+](=O)[O-])c1)NC(=O)c1ccccc1`: the TGI in the assay on MALME-3M melanoma, with SW-620 colon, with IGROV1 ovarian, in the assay on HCC-2998 colon, in the assay with CAKI-1 renal and with NCI-H522 lung was more than 100 µM in each case. In addition, the TGI in the assay with HCT-15 colon and with MOLT-4 leukemia was more than 100 µM throughout.
Take `CC(Cc1ccc(Cl)cc1Cl)NO` (stereo unspecified): the TGI in the assay with PC-3 prostate, in the assay with MALME-3M melanoma, in the assay with SW-620 colon, in the assay on IGROV1 ovarian, in the assay with MDA-MB-435 and in the assay on CAKI-1 renal was more than 100 µM throughout. Besides, the TGI with NCI-H522 lung, in the assay on HCT-15 colon and with MOLT-4 leukemia was more than 100 µM each time.
For `O=S(=O)(c1ccc(NC(=S)N/N=C/c2ccccc2O)cc1)N1CCCCC1`, the TGI is 21.1 µM with PC-3 prostate; 1.43 µM in the assay on MALME-3M melanoma; 21 µM with SW-620 colon; more than 50.4 µM in the assay on IGROV1 ovarian; 11.2 µM in the assay on MDA-MB-435; 0.671 µM with CAKI-1 renal. Moreover, the TGI in the assay with NCI-H522 lung is more than 57.5 µM; in the assay with HCT-15 colon, 18.4 µM; with MOLT-4 leukemia it was 2.13 µM.

The values are drawn from PubChem BioAssay (NCI).
